From PMC4371799 (Clinical Epigenetics, 2015)
Values joined by “and” are separate entries in the source; they are usually repeats but may differ in a detail not shown here. Identical values can stand only once.

How the values were obtained:
[1] = system: CTR1; set-up: method as in PMID 19470736; settings: phase I clinical trial, refractory solid tumors and lymphomas; cited from earlier work
[2] = Oxaliplatin plasma pharmacokinetics, non-compartmental analysis; settings: for AUCall / AUCinf / C max / CL / V d / t 1/2: C1D2, mean (SD)
Procedure: This phase was followed by an expansion phase in which patients with CRC were treated with the maximum tolerated dose (MTD). Patients were treated with six cycles of therapy, unless they withdrew consent or experienced severe adverse events or progressive disease.
Oxaliplatin pharmacokinetics were assessed on day 2 during cycle 1 to permit correlation of pharmacokinetic parameters with toxicity and treatment outcome. Blood samples (10 ml per sample) were collected immediately prior to oxaliplatin infusion, immediately after infusion, and at 1, 2, 4, 6, 8, 12, and 24 h after infusion. Samples were assayed for total and unbound platinum using either inductively coupled plasma mass spectrometry or atomic absorption spectroscopy methods following isolation of the drug from plasma. Compartmental and non-compartmental models were used to derive pharmacokinetic parameters, including Cmax, AUC, t1/2, Vd, and CL.

[3] = Total platinum levels in snap-frozen tumor samples (ICP-MS); assay type: in vivo, patients
Excerpt: The tumor tissue was frozen and stored in cryogenic storage tubes before being analyzed for total platinum content using inductively coupled plasma mass spectrometry. If a sufficient amount of the sample remained following this analysis, the tissue was subjected to homogenization and extraction with 0.2% formic acid and acetonitrile for analysis by ultra-performance liquid chromatography/mass spectrometry for oxaliplatin content.

[4] = set-up: method as in PMID 10778943; settings: traditional infusion once every 2 to 3 weeks; cited from earlier work
[5] = oxaliplatin treatment reported by other investigators; cited from earlier work
[6] = azacitidine/oxaliplatin 20/15 mg/m^2, n = 3
[7] = azacitidine/oxaliplatin 20/22.5 mg/m^2, n = 3
[8] = azacitidine/oxaliplatin 20/30 mg/m^2, n = 3
[9] = azacitidine/oxaliplatin 25/30 mg/m^2, n = 3
[10] = azacitidine/oxaliplatin 40/30 mg/m^2, n = 3
[11] = azacitidine/oxaliplatin 50/30 mg/m^2, n = 22
[12] = oxaliplatin 15 to 30 mg/m^2/day IV over 2 h, days 2 to 5, mean over dose levels
[13] = post-dose vs pre-dose, five post-dose tumor samples, dose level 6
[14] = seven patients, expansion phase, before treatment

For `Nc1ncn([C@H]2C[C@H](O)[C@@H](CO)O2)c(=O)n1` [decitabine], the “effect on CTR1 expression” value [1] is listed as “significantly increased CTR1 expression”.
In the case of `O=C1[O][Pt]2([NH][C@@H]3CCCC[C@H]3[NH]2)[O]C1=O` [oxaliplatin], the AUCall [2, 6] is reported as 704.3 (228.5) h-ng/ml, the AUCinf [2, 6] is reported as 1,003.5 (211.1) h-ng/ml and the C max [2, 6] is reported as 337.3 (141.3) ng/ml. The CL [2, 6] was 15.5 (3.7) l/h/m^2, the V d [2, 6] was 829.2 (580.0) l/m^2 and the “t 1/2” value [2, 6] was 38.9 (31.9) h. For the same compound, the AUCall [2, 7] was 1,178.4 (238.0) h-ng/ml, the AUCinf [2, 7] was 1,359.3 (167.1) h-ng/ml and the C max [2, 7] was 573.5 (131.1) ng/ml. The CL [2, 7] was 16.7 (2.0) l/h/m^2, the V d [2, 7] was 443.5 (232.2) l/m^2 and the “t 1/2” value [2, 7] was 17.9 (7.7) h. For the same compound, the AUCall [2, 8] was 1,149.0 (930.3) h-ng/ml, the AUCinf [2, 8] was 1,411.6 (1,065.1) h-ng/ml and the C max [2, 8] was 446.9 (447.8) ng/ml. For the same compound, the CL [2, 8] was 29.1 (15.7) l/h/m^2, the V d [2, 8] was 794.5 (703.8) l/m^2 and the “t 1/2” value [2, 8] was 18.6 (11.9) h. The AUCall [2, 9] was 1,369.1 (556.1) h-ng/ml, the AUCinf [2, 9] was 1,919.4 (923.3) h-ng/ml and the C max [2, 9] was 582.6 (270.3) ng/ml. For the same compound, the CL [2, 9] was 19.2 (11.4) l/h/m^2, the V d [2, 9] was 587.5 (240.1) l/m^2 and the “t 1/2” value [2, 9] was 23.7 (10.2) h. For the same compound, the AUCall [2, 10] was 1,543.5 (502.1) h-ng/ml, the AUCinf [2, 10] was 1,867.0 (387.0) h-ng/ml and the C max [2, 10] was 751.7 (275.5) ng/ml. For the same compound, the CL [2, 10] was 16.6 (3.9) l/h/m^2, the V d [2, 10] was 613.8 (541.2) l/m^2 and the “t 1/2” value [2, 10] was 23.3 (15.6) h. For the same compound, the AUCall [2, 11] was 1,286.3 (627.0) h-ng/ml, the AUCinf [2, 11] was 1,456 h-ng/ml and 1,455.9 (657.6) h-ng/ml and the C max [2, 11] was 650 ng/ml and 649.4 (384.5) ng/ml. The CL [2, 11] was 24.5 l/h/m^2 and 24.5 (10.2) l/h/m^2, the V d [2, 11] was 554 l/m^2 and 554.0 (250.7) l/m^2 and the “t 1/2” value [2, 11] was 16.5 (7.1) h. For the same compound, the “AUCinf, mean of the current infusion regimen” value [2, 12] was 1,503 ng-h/ml, the “Cmax, mean of the current infusion regimen” value [2, 12] was 557 ng/mL and the kinetics of elimination ([2]; plasma, all dose levels) was “first-order kinetics of elimination”. For the same compound, the “increase of tumor platinum concentration, median” value [3, 13] was 3.8 fold, the “increase of tumor platinum concentration, range” value [3, 13] was 3- to 18 fold and the “change of tumor platinum concentration” value ([3]; post-dose vs pre-dose, the two tumor samples with the highest pre-dose level) was “remained unchanged”. The “pre-dose platinum level in tumor, median” value [3, 14] was 0.59 μg/g tumor, the “pre-dose platinum level in tumor, range” value [3, 14] was less than 0.25 to 5.8 μg/g tumor and the “AUCinf, mean, traditional infusion” value [4] was 9,907 ng-h/ml. The “Cmax, mean, traditional infusion” value [4] was 877 ng/mL, the “incidence of peripheral neuropathy, all grades” value [5] was 40% to 50 and the “incidence of peripheral neuropathy, grade ≥3” value [5] was 10% to 20.
